{"source": "paper PMC12610274", "about": "“Identification of Marrubiin as a Cathepsin C Inhibitor for Treating Rheumatoid Arthritis” (Molecules, 2025)", "key": {"[1]": {"system": "Cat G", "assay": "Stability (protein level) of NSPs in U937 cells, Western blot, Cat G", "type": "cell-based, human", "conditions": "U937, 10 μM", "experimental": "(§1) The Western blot experiments in this study were performed as described below. Cells in the logarithmic growth phase were collected in appropriate numbers according to different experimental purposes. After being thoroughly washed with phosphate-buffered saline and centrifuged, the cell pellets were resuspended in phosphate-buffered saline to obtain single-cell suspensions. Cells were fully lysed using RIPA buffer (Beyotime, P0013B) supplemented with EDTA-free protease and phosphatase inhibitor (Abcam, ab201120). Total cellular protein solutions were obtained after centrifugation to remove cell debris. The isolated proteins were quantified using the BeyoBCA protein assay kit (Beyotime, P0399M) following the operational protocol. The quantified protein samples were thoroughly mixed with protein loading buffer, boiled on a dry bath for 5 min, and then cooled to room temperature for Western blot analysis. […] Finally, enhanced chemiluminescent horseradish peroxidase substrate (Tanon Science & Technology Co., Ltd., Shanghai, China, 180-506) was used to visualize protein bands on a ChemiDoc XRS system (Bio-Rad Laboratories, Inc., Hercules, CA, USA), and the protein bands were quantified using Image Lab analysis software (Version 6.1) (Bio-Rad). […]"}, "[2]": {"system": "Cat G", "assay": "AIA model, serum Cat G activity", "type": "in vivo, Sprague-Dawley rats", "conditions": "rat AIA, high dose 60 mg/kg gavage, 15 days", "experimental": "Thirty 4-week-old male Sprague-Dawley rats (weighing 120–130 g) were randomly divided into 6 groups (5 rats per group) after 1 week of adaptive feeding, namely the normal group, model group, low-dose experimental group (15 mg/kg), medium-dose experimental group (30 mg/kg), high-dose experimental group (60 mg/kg), and positive control group (30 mg/kg). Starting from Day 0 of the experiment, rats in the administration groups and model group were injected intradermally with 0.1 mL of CFA into the left hind paw to induce AIA, while rats in the normal group were injected intradermally with an equal volume (0.1 mL) of normal saline as a control. After 13 consecutive days of feeding, rats treated with CFA successfully developed typical AIA symptoms. […] During the experiment, the body weight, mental state, activity ability, hair color changes, and paw appearance changes of the rats were observed and recorded daily. In addition, on Day 0 of the experiment (baseline period), the basic paw volume of all rats was accurately measured using a plethysmometer, which served as a reference standard for subsequent evaluation of inflammation severity. From Day 13 to Day 28 of the experiment, the paw volume of the rats was measured repeatedly every 3 days. The degree of paw swelling was quantified by calculating the change in paw volume relative to the baseline. […] The cytokine levels in serum were measured. […]"}, "[3]": {"target": "Dipeptidyl Peptidase 4 (Homo sapiens, UniProt P27487)", "sequence (P27487 whole entry, species assumed)": "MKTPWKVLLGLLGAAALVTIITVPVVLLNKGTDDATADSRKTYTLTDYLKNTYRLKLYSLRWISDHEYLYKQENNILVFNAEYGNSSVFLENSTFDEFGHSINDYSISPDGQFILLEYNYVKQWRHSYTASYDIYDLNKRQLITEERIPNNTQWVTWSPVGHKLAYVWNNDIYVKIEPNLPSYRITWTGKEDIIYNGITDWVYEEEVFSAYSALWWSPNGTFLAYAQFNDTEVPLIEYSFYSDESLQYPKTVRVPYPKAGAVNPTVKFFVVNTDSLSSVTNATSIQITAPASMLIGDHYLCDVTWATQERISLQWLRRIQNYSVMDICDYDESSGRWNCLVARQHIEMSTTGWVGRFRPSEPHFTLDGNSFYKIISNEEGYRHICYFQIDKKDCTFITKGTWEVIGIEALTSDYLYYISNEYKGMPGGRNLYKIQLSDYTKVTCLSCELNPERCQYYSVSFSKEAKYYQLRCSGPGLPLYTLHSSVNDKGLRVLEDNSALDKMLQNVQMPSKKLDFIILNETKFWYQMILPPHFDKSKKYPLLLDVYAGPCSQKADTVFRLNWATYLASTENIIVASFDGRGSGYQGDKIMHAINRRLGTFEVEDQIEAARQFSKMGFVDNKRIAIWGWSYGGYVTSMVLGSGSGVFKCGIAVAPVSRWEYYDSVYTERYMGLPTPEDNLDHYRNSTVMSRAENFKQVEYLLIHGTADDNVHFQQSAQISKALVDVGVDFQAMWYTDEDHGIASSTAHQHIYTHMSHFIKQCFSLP", "assay": "Recombinant dipeptidyl peptidases isolated enzyme assay, DPP4", "type": "biochemical", "conditions": "read-out: Dipeptidyl Peptidase 4 Enz (IC50: μM)", "text": "Table 3 Inhibitory effects of marrubiin on dipeptidyl peptidase. | column: Dipeptidyl Peptidase 4 Enz (IC50: μM)"}, "[4]": {"system": "NSPs", "assay": "Stability (protein level) of NSPs in U937 cells, Western blot, NSPs together", "type": "cell-based, human", "conditions": "U937, 10 μM, 24 h", "experimental": "as §1"}, "[5]": {"target": "T1, CTSS (Homo sapiens, UniProt P25774)", "T1 construct": "purchased R&D Systems", "T1 sequence (P25774 115-331)": "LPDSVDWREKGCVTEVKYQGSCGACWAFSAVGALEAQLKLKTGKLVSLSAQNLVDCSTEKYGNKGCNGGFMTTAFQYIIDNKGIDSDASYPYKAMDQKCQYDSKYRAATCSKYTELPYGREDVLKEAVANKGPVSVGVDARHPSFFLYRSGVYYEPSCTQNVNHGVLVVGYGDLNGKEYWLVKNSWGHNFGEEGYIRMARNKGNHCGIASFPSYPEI", "assay": "Human recombinant cathepsins isolated enzyme assay, CTSS", "type": "biochemical", "conditions": "read-out: CTSS Enz (IC50: μM)", "text": "The protocol for evaluating the inhibitory potency of compounds against other cathepsins referred to the CTSC activity assay. Recombinant human CTSB, CTSL, CTSS and CTSK for testing were also purchased from R&D Systems Biotechnology Company. Recombinant human Cat G, NE, and PR3 For testing were purchased from MedChemExpress. A multi-functional microplate reader was used to measure the absorption of Z-Leu-Arg-AMC at excitation/emission wavelengths of 380/460 nm to assess the activity changes of CTSB and CTSL, while the absorption of MCA-Arg-Pro-Lys-Pro-Val-Glu-NVAL-Trp-Arg-Lys(DNP)-NH2 at 320/405 nm was measured to evaluate the activity changes of CTSS and CTSK. Different assay buffers were prepared for diluting samples and measuring the activities of specific NSPs: a buffer containing 50 mM Tris and 750 mM NaCl (pH 7.4) was used for NE and PR3; a buffer containing 50 mM Tris, 750 mM NaCl, 5 mM EDTA (pH 7.4) was used for Cat G; and a buffer containing 25 mM MES, 50 mM NaCl, 5 mM DTT (pH 6.0) was used for CTSC. Synthetic substrates were employed to assess the activities of NSPs and CTSC: H-Gly-Arg-AMC for CTSC, N-MeSuc-Ala-Ala-Pro-Val-pNA for NE, aminobenzoyl-Val-Ala-Asp-Cys-Ala-Asp-Gln-ethylenediamine 2,4-dinitrophenyl for PR3, and N-Suc-Ala-Ala-Pro-Phe-pNA for Cat G. Each group of tests was independently repeated at least 3 times, and IC50 values were calculated using SPSS 10.0."}}, "data": [{"smiles": "C[C@@H]1C[C@H]2OC(=O)[C@@]3(C)CCC[C@@](C)([C@@H]23)[C@@]1(O)CCc1ccoc1", "note": "[Marrubiin, marrubiin]", "values": [{"measurement": "Cat G protein level, % of original level", "setting": "[1]; 96 h", "value": 30.2, "unit": "%"}, {"measurement": "Cat G protein level, % of original level", "setting": "[1]; 5 days", "value": 12.3, "unit": "%"}, {"measurement": "serum Cat G activity, % of control group", "setting": "[2]", "value": "~64", "unit": "%"}, {"measurement": "IC50", "setting": "[3]", "value": "> 10", "unit": "µM"}, {"measurement": "content of NSPs, % of the original level", "setting": "[4]", "value": "75.4–87.8%"}, {"measurement": "IC50", "setting": "[5]", "value": "> 5", "unit": "µM"}]}]}
